Measured values: patent US20130184272A1, “DIABETES THERAPEUTIC AGENT” (TAKEDA PHARMACEUTICAL COMPANY LIMITED, priority 2010, published 2013)

Legend:
[1] = system: myogenin; assay: Muscle-related gene expression in myoblast: myogenin; assay type: cell-based, Mouse; conditions: for Myogenin/36B4 expression level: 10 μM, 1 day, relative value
[2] = system: EGLN3; assay: Muscle-related gene expression in myoblast: EGLN3; assay type: cell-based, Mouse; conditions: for EGLN3/36B4 expression level: 10 μM, 1 day, relative value
Experimental: • (1) In the same manner as in Example 1, C2C12 cell was cultured, and the compound of Reference Example 1 (10 nM) was added. A DMSO solution was added to the control group instead of the test compound. • (2) One day after the addition of the test compound or DMSO solution, total RNA was extracted using Rneasy 96 kit (Qiagen) and according to the manual of the kit, and cDNA was prepared using TaqMan reverse transcription reagent (Applied Biosystems). • (3) The expression level of MyoD (Mm00440387_m1, TaqMan Gene Expression Assays, Applied Biosystems), myogenin (Mm00446194_m1, TaqMan Gene Expression Assays, Applied Biosystems), creatine kinase (CKM) (Mm00432556_m1, TaqMan Gene Expression Assays, Applied Biosystems), EGLN3 (Mm00472200_m1, TaqMan Gene Expression Assays, Applied Biosystems) was measured by quantify PCR using ABI PRISM 7900 (Applied Biosystems). The expression level of each gene, shown in Table 3, Table 4, Table 5 and Table 6, was obtained by amendment against the expression level of 36B4 (Takeda Pharmaceutical Company Limited), and is shown in a relative value to the value of the control group cultured in a growth medium as 1.
The data of Table 3, Table 4, Table 5 and Table 6 show mean±standard deviation at n=6 (n is the number of samples).
The following depicts the sequences of genes used for the amendment. • 36B4-F: 5′-TGCCACACTCCATCATCAATG-3′ (SEQ ID NO: 1) • 36B4-R: 5′-CGCAAATGCAGATGGATCAG-3′ (SEQ ID NO: 2) • 5′-VIC-ACCTTCCCACTTACTGAAAAGGTCAAGGCC-TAMRA-3′ (SEQ ID NO: 3)

[3] = system: creatine kinase (CKM); assay: Muscle-related gene expression in myoblast: creatine kinase (CKM); assay type: cell-based, Mouse; conditions: for CKM/36B4 expression level: 10 μM, 1 day, relative value
[4] = system: Normal male C57BL/6J mice; assay: Data of normal mouse; assay type: in vivo
Experimental: Normal male C57BL/6J mice (CLEA Japan, Inc.) were bred allowing free ingestion of both feed and water. The mice were bred for acclimation for 1 week from 16-week-old. The body weight was measured, the mice were divided into 2 groups (5 per group) to be uniform, and the compound of Reference Example 1 (0.03 mg/kg) was orally administered to one group for 2 weeks. On the last day, the body weight, and plasma levels of total cholesterol, glucose, lactic acid, GOT, GPT and neutral lipid were measured. The data of Table 19 show mean±standard deviation at n=5 (n is the number of samples).

[5] = system: phosphorylated acetyl-CoA carboxylase (ACC); assay: Phosphorylated acetyl-CoA carboxylase (ACC) amount in muscle cell; assay type: cell-based, Mouse; conditions: for Phospho-ACC amount (%): 3 days, amended with total ACC, no compound = 100%
Experimental: • (1) In the same manner as in Example 1, C2C12 cells were cultured in a growth medium. After reaching subconfluence of not less than 90%, the medium was exchanged with a differentiation medium and the cells were cultured for about 4 days while exchanging the medium every 2 or 3 days until the cells differentiated to form a myotube. • (2) After confirmation of myotube formation under a microscope, the test compound (0.1-10 nM) was added to a differentiation medium and cultured for 3 days. Thereafter, the cells were fixed with 4% formaldehyde phosphate buffer for 10 min, and washed 4 times with PBS containing 0.1% TritonX-100. • (3) Odyssey Blocking Buffer (LI-COR Biosciences) was added, and the mixture was incubated at room temperature for 1 hr. Thereafter, primary antibody (ACCα (T-18) (Santacruz) and Phospho-ACC (Ser79) (Upstate)) were added, and the mixture was incubated at 4° C. overnight. • (4) The cells were washed 4 times with PBS containing 0.1% Tween20, secondary antibody (Donkey anti-goat IRDye 800CW (LI-COR Biosciences) and Donkey anti-mouse IRDye 680 (LI-COR Biosciences)) were added and the mixture was incubated under shading at room temperature for 1 hr. • (5) The cells were washed 4 times with PBS containing 0.1% Tween20, PBS was added, and the phospho-ACC amount and total ACC amount were measured using Odyssey2.1 (LI-COR Biosciences).
The numerical values in Table 20 were obtained by amending the phospho-ACC amount with total ACC amount and are shown based on the absence of addition of the compound as 100%. n is the number of samples.

[6] = system: C3H10T1/2 cells; assay: Adipocyte differentiation suppressive action; assay type: cell-based; conditions: for cell number (number of nucleus/visual field) / lipid droplet area (lipid droplet stained area/cell number): DM, 9 days
Experimental: C3H10T1/2 cells (Dainippon Pharmaceutical Co., Ltd.) were cultured in a growth medium until confluence. 1 μM dexamethasone, 0.5 mM 3-isobutyl-1-methylxanthine and 5 μg/mL insulin were added to the medium, and the cells were cultured for 3 days. The medium was exchanged with a growth medium added with 4 μg/mL insulin and the cells were cultured for 3 more days and cultured in a growth medium for 3 days. When the compound was added, it was added for 9 days after reaching confluence and the cells were cultured. The cells were fixed with 3.7% formalin, lipid droplet was stained with 100 nM BODIPY 493/503 (Molecular Probes), nucleus was stained with 2 μM Hoechst33258 (Acros Organics), and analyzed by IN Cell analyzer (GE Healthcare). The data of Table 15 show mean±standard deviation at n=4 (n is the number of samples).

[7] = C2C12 cells cultured in a differentiation medium
[8] = normal mice, 0.03 mg/kg oral, 2 weeks

SMILES: Cc1ncccc1Oc1sc(C(N)=O)c2c1-c1c(cnn1C)CC2 [Ref. Ex. 1, 1-methyl-8-[(2-methylpyridin-3-yl)oxy]-4,5-dihydro-1H-thieno[3,4-g]indazole-6-carboxamide]
- expression of myogenin (in words) [1, 7]: promoted
- Myogenin/36B4 expression level ([1]; DM (differentiation medium)): 3.81 ± 0.55
- Myogenin/36B4 expression level ([1]; GM (growth medium)): 0.03 ± 0.00
- expression of EGLN3 (in words) [2, 7]: increased
- EGLN3/36B4 expression level ([2]; DM (differentiation medium)): 2.07 ± 1.15
- EGLN3/36B4 expression level ([2]; GM (growth medium)): 2.12 ± 0.15
- expression of creatine kinase (in words) [3, 7]: promoted
- CKM/36B4 expression level ([3]; DM (differentiation medium)): 4.84 ± 1.08
- CKM/36B4 expression level ([3]; GM (growth medium)): 0.03 ± 0.01
- normal body weight and plasma markers (in words) ([4]; normal C57BL/6J mice): does not affect
- body weight (g) on last day [4, 8]: 28.03 ± 0.84 g
- plasma GOT (U/L) [4, 8]: 63.4 ± 31.1 U/L
- plasma GPT (U/L) [4, 8]: 29.4 ± 3.9 U/L
- plasma glucose [4, 8]: 155.5 ± 11.9 mg/dL
- plasma lactic acid [4, 8]: 49.3 ± 16.5 mg/dL
- plasma neutral fats [4, 8]: 78.0 ± 31.0 mg/dL
- plasma total cholesterol [4, 8]: 81.1 ± 10.2 mg/dL
- total amount of ingestion (g/2 weeks) [4, 8]: 55.6 ± 2.5 g/2 weeks
- Phospho-ACC amount (%) ([5]; compound 0.1 nM): 112%
- Phospho-ACC amount (%) ([5]; compound 0.3 nM): 125%
- Phospho-ACC amount (%) ([5]; compound 1 nM): 136%
- Phospho-ACC amount (%) ([5]; compound 3 nM): 167%
- Phospho-ACC amount (%) ([5]; compound 10 nM): 163%
- phospho-ACC amount (in words) ([5]; differentiated C2C12 muscle cell): increased
- cell number (number of nucleus/visual field) ([6]; compound 0.1 nM): 303 ± 28
- lipid droplet area (lipid droplet stained area/cell number) ([6]; compound 0.1 nM): 9625
- cell number (number of nucleus/visual field) ([6]; compound 1 nM): 295 ± 15
- lipid droplet area (lipid droplet stained area/cell number) ([6]; compound 1 nM): 5703
- cell number (number of nucleus/visual field) ([6]; compound 10 nM): 318 ± 9
- lipid droplet area (lipid droplet stained area/cell number) ([6]; compound 10 nM): 2010
- cell number (in words) ([6]; adipocyte differentiation): without affecting
- intracellular lipid accumulation (in words) ([6]; adipocyte differentiation): decreased
